Measurements taken from US6815398B1, “Substituted phenyluracils and their use as herbicides” (Bayer Aktiengesellschaft, priority 1999, dated 2004).

| SMILES | melting point |
| --- | --- |
| COc1ccc(Oc2cc(-n3c(=O)cc(C(F)(F)F)[nH]c3=O)c(F)cc2C#N)cc1 [Example 1, 4-(3,6-dihydro-2,6-dioxo-4-trifluoromethyl-1(2H)-pyrimidin-1-yl)-5-fluoro-2-(4-methoxy-phenoxy)-benzonitrile] | 84 °C |
| COc1ccc(Oc2cc(-n3c(=O)cc(C(F)(F)F)n(C)c3=O)c(F)cc2C#N)cc1 [Example 2, 4-(3,6-dihydro-2,6-dioxo-3-methyl-4-trifluoro-methyl-1(2H)-pyrimidin-1-yl)-5-fluoro-2-(4-methoxy-phenoxy)-benzonitrile] | 62 °C |
